{"source": "patent US7989430B2", "about": "“Antibacterial agents” (priority 2005, dated 2011)", "key": {"[1]": {"system": "M. tuberculosis H37Rv", "details": "Ferreras et al., Nature Chem. Biol. 2005, likely the free acid form; cited from earlier work"}, "[2]": {"experiment": "Chemical stability on storage", "details": "salt form prepared in Example 1 vs free acid"}, "[3]": {"system": "M. tuberculosis H37Rv", "experiment": "M. tuberculosis H37Rv MIC assay (whole-cell)", "type": "cell-based, Mycobacterium tuberculosis"}, "[4]": {"details": "50% aq TFA, 3 h"}, "[5]": {"target": "MbtA (Mycobacterium tuberculosis, UniProt P71716)", "sequence (P71716 whole entry)": "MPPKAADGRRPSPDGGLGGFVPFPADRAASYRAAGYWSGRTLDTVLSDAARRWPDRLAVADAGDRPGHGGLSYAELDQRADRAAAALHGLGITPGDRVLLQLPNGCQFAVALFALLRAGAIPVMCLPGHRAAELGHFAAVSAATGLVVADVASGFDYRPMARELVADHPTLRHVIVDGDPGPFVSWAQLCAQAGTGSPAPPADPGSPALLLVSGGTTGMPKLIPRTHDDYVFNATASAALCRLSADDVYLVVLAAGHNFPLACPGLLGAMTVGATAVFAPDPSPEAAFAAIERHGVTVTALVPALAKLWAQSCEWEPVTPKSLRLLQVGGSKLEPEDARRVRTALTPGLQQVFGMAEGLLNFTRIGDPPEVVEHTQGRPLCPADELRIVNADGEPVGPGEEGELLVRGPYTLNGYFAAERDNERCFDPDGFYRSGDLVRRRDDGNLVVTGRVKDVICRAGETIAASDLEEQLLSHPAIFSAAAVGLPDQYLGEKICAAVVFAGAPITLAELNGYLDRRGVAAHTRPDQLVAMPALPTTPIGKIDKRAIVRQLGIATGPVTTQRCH", "details": "data not shown"}}, "data": [{"smiles": "Nc1ncnc2c1ncn2[C@@H]1O[C@H](COS(=O)(=O)NC(=O)c2ccc(O)c(O)c2)[C@@H](O)[C@H]1O", "values": [{"measurement": "melting point", "value": "> 190 °C (dec.)"}]}, {"smiles": "Nc1ncnc2c1ncn2[C@@H]1O[C@H](COS(=O)(=O)NC(=O)c2ccccc2O)[C@@H](O)[C@H]1O", "note": "[Compound 34, 5′-O—(N-(2-hydroxybenzoyl)sulfamoyl)adenosine]", "values": [{"measurement": "MIC50", "setting": "[1]", "value": 2.2, "unit": "µM"}]}, {"smiles": "CCN(CC)CC.Nc1ncnc2c1ncn2[C@@H]1O[C@H](COS(=O)(=O)NC(=O)c2ccccc2O)[C@@H](O)[C@H]1O", "note": "[Example 1, 5′-O—(N-(2-Hydroxybenzoyl)sulfamoyl)-adenosine triethylammonium salt]", "values": [{"measurement": "stability relative to the free acid", "setting": "[2]", "value": "significantly more stable"}, {"measurement": "potency against M. tuberculosis H37Rv relative to the free acid", "setting": "[3]; salt form vs free acid", "value": "about 28 times"}]}, {"smiles": "CCN(CC)CC.Nc1ncnc2c1ncn2[C@H]1C[C@H](O)[C@@H](COS(=O)(=O)NC(=O)c2ccccc2O)O1", "note": "[Example 42, 2′-Deoxy-5′-O—[N-(2-hydroxybenzoyl)sulfamoyl]-adenosine triethylammonium salt]", "values": [{"measurement": "stability under acidic conditions", "setting": "[4]", "value": "unstable"}, {"measurement": "activity in whole-cell assay of M. tuberculosis", "setting": "[3]; data not shown", "value": "potent activity"}, {"measurement": "activity in the in vitro enzyme assay", "setting": "[5]", "value": "potent activity"}]}]}
